Assay results published in US20260132132A1, “3A,4,5,6-TETRAHYDRO-1 H-PYRAZOLO[3,4-C]PYRIDIN-7(7AH)-ONE DERIVATIVES AS FACTOR XIIA INHIBITORS” (KALVISTA PHARMACEUTICALS LIMITED, priority 2022, published 2026).
pIC50: −log10 of the molar value.

How the values were obtained:
[1] = molecular target: T1, Human Factor XIIa (hFXIIa) (Homo sapiens, UniProt P00748); assay: Determination of Human Factor XIIa (hFXIIa) inhibition, fluorogenic substrate IC50 assay; format: biochemical; conditions: fluorogenic substrate H-DPro-Phe-Arg-AFC at Km, 25° C., read-out: Human FXIIa IC50
T1 construct: purchased Enzyme Research Laboratories
T1 sequence (P00748 373-615 limits assumed): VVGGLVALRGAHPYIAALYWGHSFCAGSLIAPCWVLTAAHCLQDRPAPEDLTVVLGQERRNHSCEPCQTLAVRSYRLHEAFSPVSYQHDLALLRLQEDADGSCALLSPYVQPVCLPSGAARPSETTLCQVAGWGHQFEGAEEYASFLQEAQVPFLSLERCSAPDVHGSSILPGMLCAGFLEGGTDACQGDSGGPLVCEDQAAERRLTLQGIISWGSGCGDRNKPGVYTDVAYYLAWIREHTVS
T1 sequence (P00748 20-372 partner limits assumed): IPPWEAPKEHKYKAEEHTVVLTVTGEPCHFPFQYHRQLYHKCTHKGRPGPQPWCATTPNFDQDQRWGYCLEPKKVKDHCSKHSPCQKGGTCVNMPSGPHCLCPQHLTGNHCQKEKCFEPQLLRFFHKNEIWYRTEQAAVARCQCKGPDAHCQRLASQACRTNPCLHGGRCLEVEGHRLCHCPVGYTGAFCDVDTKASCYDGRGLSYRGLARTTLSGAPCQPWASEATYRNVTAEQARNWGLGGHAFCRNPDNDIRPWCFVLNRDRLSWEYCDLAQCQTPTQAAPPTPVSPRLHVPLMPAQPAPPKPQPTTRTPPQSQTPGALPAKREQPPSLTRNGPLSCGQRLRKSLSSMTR
Experimental: Determination of Human Factor XIIa (hFXIIa) inhibition
The Km for the cleavage of the substrate by hFXIIa was determined by standard transformation of the Michaelis-Menten equation, with subsequent inhibition assays performed at substrate Km concentration.

FXa = FXa (Homo sapiens, UniProt P00742); assay: Related protease inhibition: FXa, fluorogenic substrate; format: biochemical; conditions: fluorogenic substrate at Km, 25° C.; H1-H3 = % activity at 40 μM
Experimental: Human serine protease enzyme Plasma Kallikrein, KLK1, FXa, Plasmin, Thrombin and Trypsin were assayed for enzymatic activity using an appropriate fluorogenic substrate at Km concentration, FXIa at fixed substrate concentration of 100 μM and various concentrations of the test compound.

Chain of FXa (P00742 235-488 limits assumed): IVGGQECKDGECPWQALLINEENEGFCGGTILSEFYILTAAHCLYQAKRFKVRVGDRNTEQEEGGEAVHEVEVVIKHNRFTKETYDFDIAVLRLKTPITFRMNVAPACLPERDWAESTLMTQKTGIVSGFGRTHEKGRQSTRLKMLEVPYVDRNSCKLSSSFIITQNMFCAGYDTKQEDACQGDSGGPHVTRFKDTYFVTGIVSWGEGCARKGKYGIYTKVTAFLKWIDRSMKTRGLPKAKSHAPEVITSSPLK
Chain of FXa (P00742 41-179 partner limits assumed): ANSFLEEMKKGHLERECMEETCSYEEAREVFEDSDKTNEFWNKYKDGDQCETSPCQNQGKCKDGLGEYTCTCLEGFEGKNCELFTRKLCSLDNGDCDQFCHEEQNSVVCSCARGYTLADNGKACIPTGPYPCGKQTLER

| pIC50 [1] | pIC50 (FXa) | SMILES |
| --- | --- | --- |
| 7.00 to 8.00 | 4.40 to 5.00 | Cc1ccc(CNC(=O)c2nn(-c3cccc(Cl)c3)c3c2CCN(c2ccc4c(c2)CN(CCO)CC4)C3=O)cn1 [Example 1147, 1-(3-chlorophenyl)-6-(2-(2-hydroxyethyl)-1,2,3,4-tetrahydroisoquinolin-7-yl)-N-((6-methylpyridin-3-yl)methyl)-7-oxo-4,5,6,7-tetrahydro-1H-pyrazolo[3,4-c]pyridine-3-carboxamide] |
| 6.52 to 7.00 | 4.40 to 5.00 | Cc1ccncc1CNC(=O)c1nn(-c2cccc(Cl)c2)c2c1CCN(c1ccc3c(c1)CN(CCO)C[C@@H]3C)C2=O [Example 1148, (R)-1-(3-Chlorophenyl)-6-(2-(2-hydroxyethyl)-4-methyl-1,2,3,4-tetrahydroisoquinolin-7-yl)-N-((4-methylpyridin-3-yl)methyl)-7-oxo-4,5,6,7-tetrahydro-1H-pyrazolo[3,4-c]pyridine-3-carboxamide] |
| 7.00 to 8.00 | 5.00 to 5.52 | CCN1CCc2ccc(N3CCc4c(C(=O)NCc5cc(C6CC6)n[nH]5)nn(-c5cccc(Cl)c5)c4C3=O)cc2C1 [Example 1150, 1-(3-chlorophenyl)-N-((3-cyclopropyl-1H-pyrazol-5-yl)methyl)-6-(2-ethyl-1,2,3,4-tetrahydroisoquinolin-7-yl)-7-oxo-4,5,6,7-tetrahydro-1H-pyrazolo[3,4-c]pyridine-3-carboxamide] |
| 6.52 to 7.00 | 4.40 to 5.00 | O=C(NCc1ncco1)c1nn(-c2cccc(Cl)c2)c2c1CCN(c1ccc3c(c1)CN(CCO)CC3)C2=O [Example 1151, 1-(3-chlorophenyl)-6-(2-(2-hydroxyethyl)-1,2,3,4-tetrahydroisoquinolin-7-yl)-N-(oxazol-2-ylmethyl)-7-oxo-4,5,6,7-tetrahydro-1H-pyrazolo[3,4-c]pyridine-3-carboxamide] |
| 6.00 to 6.52 | < 4.40 | C[C@H]1CN(CCO)Cc2cc(N3CCc4c(C(=O)NCC5CC5)nn(-c5cccc(Cl)c5)c4C3=O)ccc21 [Example 1152, (R)-1-(3-chlorophenyl)-N-(cyclopropylmethyl)-6-(2-(2-hydroxyethyl)-4-methyl-1,2,3,4-tetrahydroisoquinolin-7-yl)-7-oxo-4,5,6,7-tetrahydro-1H-pyrazolo[3,4-c]pyridine-3-carboxamide] |
| 6.00 to 6.52 | 4.40 to 5.00 | CCN1Cc2cc(N3CCc4c(C(=O)NCC5CC5)nn(-c5cccc(Cl)c5)c4C3=O)ccc2[C@@H](C)C1 [Example 1153, (R)-1-(3-chlorophenyl)-N-(cyclopropylmethyl)-6-(2-ethyl-4-methyl-1,2,3,4-tetrahydroisoquinolin-7-yl)-7-oxo-4,5,6,7-tetrahydro-1H-pyrazolo[3,4-c]pyridine-3-carboxamide] |
| 7.00 to 8.00 | 4.40 to 5.00 | O=C(NCc1cnccc1Cl)c1nn(-c2cccc(Cl)c2)c2c1CCN(c1ccc3c(c1)CN(CCO)CC3)C2=O [Example 1154, 1-(3-chlorophenyl)-N-((4-chloropyridin-3-yl)methyl)-6-(2-(2-hydroxyethyl)-1,2,3,4-tetrahydroisoquinolin-7-yl)-7-oxo-4,5,6,7-tetrahydro-1H-pyrazolo[3,4-c]pyridine-3-carboxamide] |
| 7.00 to 8.00 | 4.40 to 5.00 | Cn1cc(Cl)c(CNC(=O)c2nn(-c3cccc(Cl)c3)c3c2CCN(c2ccc4c(c2)CN(CCO)CC4)C3=O)n1 [Example 1155, N-((4-chloro-1-methyl-1H-pyrazol-3-yl)methyl)-1-(3-chlorophenyl)-6-(2-(2-hydroxyethyl)-1,2,3,4-tetrahydroisoquinolin-7-yl)-7-oxo-4,5,6,7-tetrahydro-1H-pyrazolo[3,4-c]pyridine-3-carboxamide] |
| 6.52 to 7.00 | 4.40 to 5.00 | COCc1cc(CNC(=O)c2nn(-c3cccc(Cl)c3)c3c2CCN(c2ccc4c(c2)CN(CCO)CC4)C3=O)[nH]n1 [Example 1156, 1-(3-chlorophenyl)-6-(2-(2-hydroxyethyl)-1,2,3,4-tetrahydroisoquinolin-7-yl)-N-((3-(methoxymethyl)-1H-pyrazol-5-yl)methyl)-7-oxo-4,5,6,7-tetrahydro-1H-pyrazolo[3,4-c]pyridine-3-carboxamide] |
| 7.00 to 8.00 | 4.40 to 5.00 | Cc1cn(C)nc1CNC(=O)c1nn(-c2cccc(Cl)c2)c2c1CCN(c1ccc3c(c1)CN(CCO)CC3)C2=O [Example 1157, 1-(3-chlorophenyl)-N-((1,4-dimethyl-1H-pyrazol-3-yl)methyl)-6-(2-(2-hydroxyethyl)-1,2,3,4-tetrahydroisoquinolin-7-yl)-7-oxo-4,5,6,7-tetrahydro-1H-pyrazolo[3,4-c]pyridine-3-carboxamide] |
| 7.00 to 8.00 | 4.40 to 5.00 | CCN1Cc2cc(N3CCc4c(C(=O)NCc5cnccc5C)nn(-c5cccc(Cl)c5)c4C3=O)ccc2[C@@H](C)C1 [Example 1158, (R)-1-(3-chlorophenyl)-6-(2-ethyl-4-methyl-1,2,3,4-tetrahydroisoquinolin-7-yl)-N-((4-methylpyridin-3-yl)methyl)-7-oxo-4,5,6,7-tetrahydro-1H-pyrazolo[3,4-c]pyridine-3-carboxamide] |
| 7.00 to 8.00 | < 4.40 | Cc1ccncc1CNC(=O)c1nn(-c2cccc(Cl)c2)c2c1CCN(c1ccc3c(c1)C(=O)N(C)CC3)C2=O [Example 1159, 1-(3-Chlorophenyl)-6-(2-methyl-1-oxo-1,2,3,4-tetrahydroisoquinolin-7-yl)-N-((4-methylpyridin-3-yl)methyl)-7-oxo-4,5,6,7-tetrahydro-1H-pyrazolo[3,4-c]pyridine-3-carboxamide] |
| 7.00 to 8.00 | < 4.40 | COc1cccnc1CNC(=O)c1nn(-c2cccc(Cl)c2)c2c1CCN(c1ccc3c(c1)CN(CCO)CC3)C2=O [Example 1160, 1-(3-chlorophenyl)-6-(2-(2-hydroxyethyl)-1,2,3,4-tetrahydroisoquinolin-7-yl)-N-((3-methoxypyridin-2-yl)methyl)-7-oxo-4,5,6,7-tetrahydro-1H-pyrazolo[3,4-c]pyridine-3-carboxamide] |
| 7.00 to 8.00 | < 4.40 | O=C(NCc1ccncc1F)c1nn(-c2cccc(Cl)c2)c2c1CCN(c1ccc3c(c1)CN(CCO)CC3)C2=O [Example 1161, 1-(3-chlorophenyl)-N-((3-fluoropyridin-4-yl)methyl)-6-(2-(2-hydroxyethyl)-1,2,3,4-tetrahydroisoquinolin-7-yl)-7-oxo-4,5,6,7-tetrahydro-1H-pyrazolo[3,4-c]pyridine-3-carboxamide] |
| 6.00 to 6.52 | < 4.40 | CS(=O)(=O)CCN1CCc2ccc(N3CCc4c(C(=O)NCC5CC5)nn(-c5cccc(Cl)c5)c4C3=O)cc2C1 [Example 1176, 1-(3-chlorophenyl)-N-(cyclopropylmethyl)-6-(2-(2-(methylsulfonyl)ethyl)-1,2,3,4-tetrahydroisoquinolin-7-yl)-7-oxo-4,5,6,7-tetrahydro-1H-pyrazolo[3,4-c]pyridine-3-carboxamide] |
| 7.00 to 8.00 | < 4.40 | Cc1ccncc1CNC(=O)c1nn(-c2cccc(Cl)c2)c2c1CCN(c1cccc(CN3CCCCC3)c1)C2=O [Example 1177, 1-(3-chlorophenyl)-N-((4-methylpyridin-3-yl)methyl)-7-oxo-6-(3-(piperidin-1-ylmethyl)phenyl)-4,5,6,7-tetrahydro-1H-pyrazolo[3,4-c]pyridine-3-carboxamide] |
| 6.00 to 6.52 | < 4.40 | CN1CCc2ccc(N3CCc4c(C(=O)NC5COCC5O)nn(-c5cccc(Cl)c5)c4C3=O)cc2C1=O (centres unmarked) [Example 1179, 1-(3-chlorophenyl)-N-(4-hydroxytetrahydrofuran-3-yl)-6-(2-methyl-1-oxo-1,2,3,4-tetrahydroisoquinolin-7-yl)-7-oxo-4,5,6,7-tetrahydro-1H-pyrazolo[3,4-c]pyridine-3-carboxamide] |
| 6.00 to 6.52 | < 4.40 | CN1CCc2ccc(N3CCc4c(C(=O)NC(CO)C5CCOC5)nn(-c5cccc(Cl)c5)c4C3=O)cc2C1=O (centres unmarked) [Example 1180, 1-(3-chlorophenyl)-N-(2-hydroxy-1-(tetrahydrofuran-3-yl)ethyl)-6-(2-methyl-1-oxo-1,2,3,4-tetrahydroisoquinolin-7-yl)-7-oxo-4,5,6,7-tetrahydro-1H-pyrazolo[3,4-c]pyridine-3-carboxamide] |
| 6.00 to 6.52 | < 4.40 | Cc1nnc(CNC(=O)c2nn(-c3cccc(Cl)c3)c3c2CCN(c2ccc4c(c2)C(=O)N(C)CC4)C3=O)s1 [Example 1181, 1-(3-chlorophenyl)-N-((5-methyl-1,3,4-thiadiazol-2-yl)methyl)-6-(2-methyl-1-oxo-1,2,3,4-tetrahydroisoquinolin-7-yl)-7-oxo-4,5,6,7-tetrahydro-1H-pyrazolo[3,4-c]pyridine-3-carboxamide] |
